Measurements: US7186825B2, “Conformationally restricted polyamine analogs as disease therapies” (Cellgate, Inc., priority 1999, dated 2007)
Where two headings read alike, the source gives them in different places.

Legend:
Assay type in all cases: cell-based
[1] = test system: human prostate cancer cells PC3; assay: MTT assay, survival/growth of cultured human prostate cancer cells PC3; details: Homo sapiens; for EC50: PC-3, 144 h, figure legends, survival of cultured PC3 cells, MTT, six days after drug treatment, read-out: ED50 (the source's name)
Experimental: (§1) Human breast cancer cell line MCF7 was grown in Richter's Improved Modified Eagle's Medium supplemented with 10% fetal bovine serum (FBS) and 2.2 g/L sodium bicarbonate. Human brain tumor cell line U251 MG-NCI was grown in Dulbecco's Modified Eagle's Medium supplemented with 10% FBS. Human lung cancer cell line A549 was grown in Ham's F-12K medium (Cellgro, Mediatech, Inc., VA), supplemented with 10% FBS and 2 mM L-glutamine. Human colon cancer cell line HT29 was cultured in McCoy's 5A medium (Gibco, BRL, Gaithersburg, Md.) supplemented with 10% FBS. Human prostate cancer cell lines PC-3, LNCAP and DuPro were grown in RPMI 1640 Medium (Cellgro, Mediatech, Inc., VA) supplemented with 10% FBS. Another human prostate cancer cell line DU145 was grown in Dulbecco's Modified Eagle's Medium (Gibco, BRL, Gaithersburg, Md.) supplemented with 5% FBS. The A549, MCF7, PC3, LNCAP and DuPro cell lines were cultured in 100 units/mL penicillin and 100 μg/mL streptomycin. HT29 and U251MG cell lines were grown in 50 μg/mL gentamycin (Gibco, BRL, Gaithersburg, Md.). DU145 cell line was maintained in 1% antibitic-antimycotic solution (Sigma, St. Louis, Mo.). The cell cultures were maintained at 37° C. in 5% CO2/95% humidified air. DuPro cells were obtained from M. Eileen Dolan, University of Chicago. All other cells are available from the American Type Culture Collection, Rockville, Md.
(§2) A conventional MTT assay was used to evaluate percent cell survival. Exponentially growing monolayer cells were plated in 96-well plates at a density of 500 cells per well and allowed to grow for 24 hours. Serial dilutions of the drugs were added to the wells. Six days after drug treatment, 25 μl of MTT solution (5 mg/ml) was added to each well and incubated for 4 hours at 37° C. Then 100 μl of lysis buffer (20% sodium dodecyl sulfate, 50% DMF, and 0.8% acetic acid, pH 4.7) was added to each well and incubated for an additional 22 hours. A microplate reader (“EMAX”-brand, Molecular Devices, Sunnyvale, Calif.) set at 570 nm was used to determine the optical density of the cultures. Results are expressed as a ratio of the optical density in drug-treated wells to the optical density in wells treated with vehicle only.
(§3) Using the protocols of Example 2, the porphyrin-polyamine conjugates were tested for activity in vitro in various cancer cell lines.

[2] = test system: human breast cancer cells MCF7; assay: MTT assay, survival/growth of cultured human breast cancer cells MCF7; details: Homo sapiens; for EC50: 144 h, figure legends, survival of cultured MCF7 cells, MTT, six days after drug treatment, read-out: ED50 (the source's name); for IC50: read-out: concentration needed for 50% growth inhibition (ID50), Table 3, MCF7
Experimental: (§4) As shown in Table 3 and FIGS. 1–32, several novel conformationally restricted polyamine analogs were tested for anti-proliferative properties against cancer cells.
as §1, §2

[3] = test system: human lung cancer cells A549; assay: MTT assay, survival/growth of cultured human lung cancer cells A549; details: Homo sapiens; for EC50: 144 h, figure legends, survival of cultured A549 cells, MTT, six days after drug treatment, read-out: ED50 (the source's name); for IC50: read-out: concentration needed for 50% growth inhibition (ID50), Table 3, A549
Experimental: as §4, §1, §2

[4] = test system: human prostate cancer cells DUPRO; assay: MTT assay, survival/growth of cultured human prostate cancer cells DUPRO; details: Homo sapiens
Experimental: as §1, §2, §3

[5] = test system: human prostate cancer cells DU145; assay: MTT assay, survival/growth of cultured human prostate cancer cells DU145; details: Homo sapiens; for EC50: DU-145, 144 h, figure legends, survival of cultured DU145 cells, MTT, six days after drug treatment, read-out: ED50 (the source's name); for IC50: DU-145
Experimental: as §1, §2, §3

[6] = test system: human colon cancer cells HT29; assay: MTT assay, survival/growth of cultured human colon cancer cells HT29; details: Homo sapiens; for IC50: read-out: concentration needed for 50% growth inhibition (ID50), Table 3, HT-29
Experimental: as §4, §1, §2

[7] = test system: human prostate cancer cells LNCAP; assay: MTT assay, survival/growth of cultured human prostate cancer cells LNCAP; details: Homo sapiens, 144 h, figure legends, survival of cultured LNCAP cells, six days after drug treatment, read-out: ED50 (the source's name)
Experimental: as §1, §2, §3

[8] = read-out: concentration needed for 50% growth inhibition (ID50), Table 3, PC-3
[9] = 144 h, figure legends, survival of cultured DUPRO cells, MTT, six days after drug treatment, read-out: ED50 (the source's name)
[10] = read-out: concentration needed for 50% growth inhibition (ID50), Table 3, DUPRO
[11] = read-out: concentration needed for 50% growth inhibition (ID50), Table 3

SMILES | EC50 [1] | IC50 [1, 8] | EC50 [2] | IC50 [2] | EC50 [3] | IC50 [3] | EC50 [4, 9] | IC50 [4, 10] | EC50 [5] | IC50 [5, 11] | IC50 [6] | IC50 [4, 9] | EC50 ([6]; HT-29, 144 h, figure legends, survival of cultured HT29 cells, MTT, six days after drug treatment, read-out: ED50 (the source's name)) | EC50 [7] | IC50 ([1]; Table 4, PC3, growth by MTT assay, read-out: IC50 (μM) in different cell lines) | IC50 ([4]; Table 4, DUPRO, growth by MTT assay, read-out: IC50 (μM) in different cell lines) | IC50 ([5]; Table 4, DU145, growth by MTT assay, read-out: IC50 (μM) in different cell lines)
CCNCCCCNC/C=C\CNCCCCNCCCCNCC [SL-11122] | > 31200 nM | > 31.2 µM | > 31200 nM | > 31200 nM | > 31200 nM | > 31200 nM | 560 nM | 0.56 µM | 80 nM | 0.8 µM | 800 nM |  |  |  |  |  | 
CCNCCCCNC/C=C\CNC/C=C\CNCCCCNCC [SL-11123] | > 31200 nM | > 31.2 µM | > 31200 nM | > 31200 nM | > 31200 nM | > 31200 nM |  | > 31.2 µM | 510 nM | 0.51 µM | 10400 nM | > 31.2 µM |  |  |  |  | 
CCNC1CCCC1CNCCCNCC1CCCC1NCC (stereo not drawn) [SL-11124] | > 31200 nM | > 31.2 µM | > 31200 nM | > 31200 nM | > 31200 nM | > 31200 nM | > 31200 nM | > 31.2 µM | > 31200 nM | > 31.2 µM | > 31200 nM |  | > 31200 nM |  |  |  | 
CCNC/C=C\CNC/C=C\CNCCCCNCCCCNCC [SL-11127] | > 31200 nM | > 31.2 µM |  |  |  |  | 1300 nM | 1.3 µM | 220 nM | 0.22 µM | 2910 nM |  |  |  |  |  | 
CCNC/C=C\CNC/C=C\CNCCCCNC/C=C\CNCC [SL-11129] | 1700 nM | 1.7 µM |  |  |  |  |  |  | 320 nM |  |  | > 31.2 µM |  |  |  |  | 
CCNC/C=C\CNC/C=C\CNC/C=C\CNCCCCNCC [SL-11130] | > 31200 nM | > 31.2 µM |  |  |  |  |  |  | 430 nM | 0.43 µM |  | > 31.2 µM |  |  |  |  | 
CCNCCCNCCCNCC1CCCC1NCC (stereo not drawn) [SL-11132] | > 31200 nM |  |  |  |  |  | > 31200 nM |  | 15 nM |  |  |  |  |  |  |  | 
CCNC/C=C\CNCCCCNC/C=C\CNCCCCNCC [SL-11133] | > 31200 nM |  |  |  |  |  |  |  | 340 nM |  |  | 31.2 µM |  |  |  |  | 
CCNCCCCNCCCCNCCCCNCCCCNCCO [SL-11141] | > 31200 nM |  |  |  |  |  | 710 nM |  | 130 nM |  |  |  |  | 70 nM |  |  | 
CCNCCCCNCCCCNCCCCNCCCCNC/C=C\CNCCCCNCCCCNCCCCNCCCCNCC [SL-11150] |  |  |  |  |  |  | 480 nM |  | 110 nM |  |  |  |  | 230 nM |  |  | 
CCNCCCCNCCCCNCCCCNCCCC1=C(C)c2cc3[nH]c(cc4nc(cc5[nH]c(cc1n2)c(CCCNCCCCNCCCCNCCCCNCC)c5C)C(CC)=C4C)c(CC)c3C [SL-11202] |  |  |  |  |  |  |  |  |  |  |  |  |  |  | 1.15 µM | 1.3 µM | 4.6 µM
